Measured values: article PMC3877906, “Polypeptide Modulators of TRPV1 Produce Analgesia without Hyperthermia” (Marine Drugs, 2013)
“Also recorded” adds a separate entry of the source.

What was measured:
CD-1 mice [1] = assay: core body temperature (rectal measuring); type: in vivo, mouse; conditions: for change in core body temperature: n = 7; for core body temperature, in words: rectal measuring, mice, vs saline
Procedure: Admittedly, hyperthermia is considered a critical side effect of TRPV1 antagonists, so we assessed the effect of the polypeptides on body temperature. Polypeptides were administered intravenously at doses 0.1 mg/kg and 0.5 mg/kg, and rectal temperature was monitored (Figure 5a,b).
(§1) All experiments were performed in accordance with the recommendations in the “Principles of Laboratory Animal Care” and after approval by the Animal Care and Use Committee of the Branch of the IBCh RAS (Pushchino, Russia). Adult male CD-1 mice (Animal Breeding Facility Branch of Shemyakin-Ovchinnikov Institute of Bioorganic Chemistry, Russian Academy of Sciences, Pushchino, Russia) weighing 20–25 g were used. Animals were allowed to acclimate in the laboratory for at least five days. Mice were housed at room temperature (23 ± 2 °C) on a 12 h light–dark cycle with food and water available ad libitum. Polypeptides or vehicle was administered intravenously 15 min before testing.
(§2) The significance of the data was determined by analysis of variance (ANOVA) followed by Tukey’s test. Data are presented as mean ± S.E.
The MLT1404 Rectal Temperature Probe and Chart Power Lab (ADInstruments Inc., Colorado Springs, CO, USA) was used to record body temperature. During recording, the animals were placed in a MLA5018 Rodent Restrainer (ADInstruments Inc., Colorado Springs, CO, USA). The adaptation period was 20 min. Core body temperature was recorded every minute for 20 min before and 100 min after test compound administration. AMG9810 was dissolved in DMSO and was injected intraperitoneally.

CD-1 mice [2] = conditions: 0.1 mg/kg, intravenous; ref [15],[16]; cited from earlier work
Procedure: The hot plate test is a most simple for TRPV1 inhibitor characterization since TRPV1 play significant role in temperature sensation. Effect of APHC1 and APHC3 on thermal nociception at dose 0.1 mg/kg after intramuscular, intraperitoneal and intravenous administration was measured before. […] Here we assessed changes in thermal nociception to a noxious thermal stimuli elicited by different doses of APHC1 and APHC3 to determine minimal effective dose. Intravenous administration ...

CD-1 mice [3] = assay: formalin test; type: in vivo, mouse; conditions: for formalin-induced response: 0.01 mg/kg; for inhibition of second phase of formalin test: 10.01–60 min; for effect on first phase of formalin test, in words / effect on second phase of formalin test, in words: vs saline
From the text: The formalin test is a complex in vivo model of pain where TRPV1’s function is more integrative than perceptive. In the mouse, intraplantar injections of formalin produce a biphasic behavioral reaction. The molecular mechanisms underlying formalin-induced pain are based on tissue damage, non-specific activation of nociceptors and direct activation of TRPA1 receptors (measured in phase I) that drive the local neurogenic inflammation and CNS sensitization (measured in phase 2). APHC1 and APHC3 were tested on TRPA1 for inhibitory/activation effects.
as §1, §2
Formalin (10 μL 2% in saline) was injected intradermally into the left hind paw. […] This test produces a distinct biphasic response. The total duration of paw flinching during the early phase (0–10 min) and late phase (10.01–60 min) were summed.

TRPV1 = type: cell-based, rat; conditions: for effect on capsaicin-induced TRPV1 response: whole-cell patch clamp, HEK-293
Procedure: Figure 2 Effects of APHC3 on recombinant TRPV1 expressed in HEK-293 cells. (a) Resting current recorded from a TRPV1-positive cell held at −30 mV. […] Straight lines above the recording indicate application of APHC3 (Long line) and capsaicin (Short lines). The cells were stimulated and rinsed by rapid switching of the bath solution between the control solution and solutions containing the indicated compound. (b) Capsaicin responses in control and in the presence of the 300 nM APHC3 peptide. In each case, the control response was calculated as an average of two acid responses recorded just prior to peptide application. Averaged responses recorded in the presence of APHC3 were normalized to averaged control responses. Those are presented as the mean ± s.d. (n = 4). […] (c, d) Cell responses to the acidification of the bath solution from pH 7.4 to pH 5.5 in control and in the presence of the APHC3 applied at different concentrations as indicated. The experimental traces in (c) and in (d, upper trace) illustrate representative responses of EGFP/TRPV1-positive cells. The bottom trace in (d) represents responses of an EGFP/TRPV1-negative cell assayed simultaneously. (e) Acid responses recorded in the presence of APHC3 (90, 160 and 240 nM) normalized to a control response. The data are presented as the mean ± s.d. (n = 5–10). […] In each case, the control response was calculated as an average of the two acid responses recorded just prior to peptide application. The average of the two acid responses recorded after peptide application was calculated and normalized to the control response. Experimental traces in (c, d) were obtained from three different cells. The changes in bath solution pH (continuous lines) and APHC3 applications (thick straight lines) are shown above the fluorescence traces. Cells were stimulated and rinsed by a rapid replacement of the control bath solution with modified bath solution at pH 5.5 with or without APHC3.
HEK-293 cells were cultured in Dulbecco’s modified Eagle’s medium (DMEM) (Life Technologies, Grand Island, NY, USA) containing 10% (vol/vol) fetal bovine serum (Thermo Fisher Scientific, Palm Beach, FL, USA), glutamine (1%) and the antibiotic gentamicin (100 μg/mL) (Life Technologies, Grand Island, NY, USA). The pIRES2-EGFP plasmid harboring rat TRPV1 cDNA was transiently transfected into HEK-293 cells by replacing the growth medium in each well with a transfection mixture, containing 1.6 μg of DNA and 4 μL of Lipofectamine (Life Technologies, Grand Island, NY, USA) in 1 mL of serum-free DMEM. After incubating for 6 h, the transfection mixture was replaced with normal culture medium. Cells were assayed within 48–96 h after transfection.
Ion currents were recorded using an Axopatch 200A amplifier, with a DigiData 1322A interface, and pClamp8 software (Molecular Devices, Downingtown, PA, USA). External solutions were delivered by a gravity-driven perfusion system at a rate of 0.1 mL/s. Generally, the whole-cell patch clamp approach was used with recording pipettes containing (mM): 140 CsCl, 1 MgATP, 10 BAPTA, 10 HEPES-CsOH (pH 7.2). The basic bath solution included the following (mM): 140 NaCl, 5 KCl, 1 MgCl2, 1 CaCl2, 10 HEPES-NaOH (pH 7.4).

| Substance | change in core body temperature (CD-1 mice [1]; 0.1 mg/kg i.v., in the 30 min after administration, stayed at this level) [°C] | change in core body temperature (CD-1 mice [1]; 0.5 mg/kg i.v., at the end of data acquisition time) [°C] | core body temperature, in words (CD-1 mice [1]) | paw withdrawal latency, hot plate, previous studies (CD-1 mice [2]) | formalin-induced response (CD-1 mice [3]) | attenuation of first phase of formalin test (CD-1 mice [3]; 0.1 mg/kg i.v., 0–10 min, n = 9, "39% of response") [%] | inhibition of second phase of formalin test (CD-1 mice [3]; 0.1 mg/kg i.v., n = 9) [%] | effect on first phase of formalin test, in words (CD-1 mice [3]; 0.1 mg/kg i.v., n = 9) | effect on second phase of formalin test, in words (CD-1 mice [3]; 0.1 mg/kg i.v., n = 9) | effect on capsaicin-induced TRPV1 response (TRPV1; 100 nM capsaicin) | change in core body temperature (CD-1 mice [1]; 0.1 mg/kg i.v., 60 min after administration) [°C] | change in core body temperature (CD-1 mice [1]; 0.5 mg/kg i.v., not statistically significant) [°C] | inhibition of TRPV1 currents (TRPV1; 100 nM capsaicin, 300 nM APHC3, whole-cell, held at −30 mV, pH 7.4 bath, four experiments (n = 4)) [%] | inhibitory effect on capsaicin-induced currents (TRPV1; concentrations more than 300 nM) [%] |
| --- | --- | --- | --- | --- | --- | --- | --- | --- | --- | --- | --- | --- | --- | --- |
| APHC1: polypeptide modulator of TRPV1 from sea anemone Heteractis crispa; homologous to BPTI/Kunitz type serine-protease inhibitors; produced recombinantly in E. coli (GSICLEPKVVGPCTAYFRRFYFDSETGKCTVFIYGGCEGNGNNFETLRACRAICRA; left off: TRX, end not stated, cleaved) | −0.8 | −2.1 | did not cause hyperthermia; also recorded: significantly decreased core body temperature in both tested doses; also recorded: moderate decrease in core body temperature | significantly prolonged paw withdrawal latency | no significant influence | 39 | 70 | significantly attenuated the first phase | significantly inhibited the second phase | partially blocked the capsaicin-induced response |  |  |  |  |
| APHC3: polypeptide from Heteractis crispa highly homologous to APHC1, differing in four of 56 amino acids; produced recombinantly in E. coli (GSICLEPKVVGPCTAYFPRFYFNSETGKCTPFIYGGCEGNGNNFETLRACRGICRA; left off: TRX, end not stated, cleaved) |  |  | did not cause hyperthermia; also recorded: modest hypothermic effect; also recorded: moderate decrease in core body temperature | significantly prolonged paw withdrawal latency | no significant influence |  | 86 | did not affect the first phase of the response; also recorded: no significant effect on phase 1 | almost completely blocked phase 2; also recorded: significantly inhibited the second phase | partially blocked the capsaicin-induced response | −0.6 | −0.4 | ~25 | 25 |
